Laboratory results: patent US7659278B2, “Use of low molecular weight compounds for preparing a medicament useful in treating mutant p53 mediated diseases” (Aprea AB, priority 2002, dated 2010)
Like-named read-outs stand apart in the source and are kept apart here.

Key:
[1] = test system: H1299-His-175 lung adenocarcinoma cells; experiment: WST-1 growth inhibition by structural analogues, H1299-His-175 cells with or without doxycycline; type: cell-based, human; conditions: for IC50: Homo sapiens, 48 h, WST-1; for R H1299-His175: ratio IC50p53null/IC50mtp53
Procedure: (§1) After 12h cells were treated with analogues and incubated with compounds for 48 h. Then WST-1 cell proliferating reagent was added to each well and cell survival was estimated by reading absorbance at 450 nm by ELISA reader. The effect of structural analogues on cell growth was tested using different concentrations of the compounds, ranging from 0.1; 1; 5; 10 and 25 μM. After that curves of growth inhibition were generated based on a rational function Y=(b+cx)/1+ax by using Microcal Origin software. The coefficients (a,b,c) of the equation were determined by employing Levenberg-Marquardt algorithm.
(§2) The specificity of each compound was determined by calculation of ratio IC50p53null/IC50mtp53. Ratios equal to 1 or less are indicating non-specific activity.

[2] = test system: Saos-2-His-273 osteosarcoma cells; experiment: WST-1 growth inhibition by structural analogues, Saos-2-His-273 cells with or without doxycycline; type: cell-based, human; conditions: for IC50: Homo sapiens, 48 h, WST-1; for R Saos-2His273: ratio IC50p53null/IC50mtp53
Procedure: as §1, §2

[3] = Dox+ (p53 null), read-out: IC50 H1299-His175 Dox+
[4] = Dox− (mutant p53 expressed), read-out: IC50 H1299-His175 Dox−
[5] = Dox+ (p53 null), read-out: IC50 Saos-2His273 Dox+
[6] = Dox− (mutant p53 expressed), read-out: IC50 Saos-2His273 Dox−

| SMILES | IC50 [1, 3] [µM] | IC50 [1, 4] [µM] | R H1299-His175 [1] | IC50 [2, 5] [µM] | IC50 [2, 6] [µM] | R Saos-2His273 [2] |
| --- | --- | --- | --- | --- | --- | --- |
| O=C1C2CCN(CC2)C1CN1C=NC2C(Cl)=NC(Cl)=NC21 (stereo not drawn) [2-(2,6-dichloro-9-methylenepurine)-3-quinuclidinone] | 4.9 | 3.2 | 1.53 | 6.2 | 2.54 | 2.44 |
| Cc1cc2ncn(CC3C(=O)C4CCN3CC4)c2cc1C (stereo not drawn) [2-(5,6-dimethyl-benzimidazole-1-methylene)-3-quinuclidinone] | 7.1 | 4.75 | 1.51 | 9.24 | 4 | 2.31 |
| COc1ncnc2c1ncn2CC1C(=O)C2CCN1CC2 (stereo not drawn) [2-(6-methoxypurine-9-methylene)-3-quinuclidinone] | 23.2 | 15.5 | 1.5 | 26 | 13.7 | 1.9 |
| Cn1c(=O)c2c([nH]c(=O)n2CC2C(=O)C3CCN2CC3)n(C)c1=O (stereo not drawn) [2-(7-methylene-1,3-dimethyluric acid)-3-quinuclidinone] | 5.2 | 4.1 | 1.26 | 5.51 | 2.74 | 2.01 |
| Nc1ncnc2nnn(CC3C(=O)C4CCN3CC4)c12 (stereo not drawn) [2-(8-azaadenine-7-methylene)-3-quinuclidinone] | 4.2 | 3.3 | 1.27 | 7.27 | 2.79 | 2.61 |
| C=Cc1nc2ccccc2c(=O)[nH]1 [2-ethylene-4(3H)-quinazolinone] | 3.9 | 1.4 | 2.8 | 5.05 | 3.97 | 1.27 |
| CN1C(=O)C=CC1=O [N-methylmaleimide] | 5.4 | 2.9 | 1.86 | 6.45 | 4.04 | 1.6 |
| O=C1C=CC(=O)N1 [maleimide] | 5.2 | 3 | 1.73 | 7.59 | 3.37 | 2.25 |
